Reference: patent US10233173B2, “Substituted 1,2,3-triazoles as NR2B-selective NMDA modulators” (JANSSEN PHARMACEUTICA NV, priority 2016, dated 2019)

Each compound was assayed against human GluN1/GluN2B NMDA receptors (Homo sapiens, UniProt Q05586+Q13224) (assay: Cell-based calcium flux (FLIPR) assay on cloned human NR1/NR2B ion channels expressed in mammalian cells). Details: standard assay; glutamate at ~EC80; FLIPR calcium flux.
Procedure, shortened: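 Calcium influx followed by FLIPR fluorescence after 5 min compound exposure and a further 5 min co-agonist challenge: 10 μM glycine with glutamate at ~EC80 (standard) or EC40 (HTS).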

Chain of human GluN1/GluN2B NMDA receptors (Q13224 27-1484, other chains not shown): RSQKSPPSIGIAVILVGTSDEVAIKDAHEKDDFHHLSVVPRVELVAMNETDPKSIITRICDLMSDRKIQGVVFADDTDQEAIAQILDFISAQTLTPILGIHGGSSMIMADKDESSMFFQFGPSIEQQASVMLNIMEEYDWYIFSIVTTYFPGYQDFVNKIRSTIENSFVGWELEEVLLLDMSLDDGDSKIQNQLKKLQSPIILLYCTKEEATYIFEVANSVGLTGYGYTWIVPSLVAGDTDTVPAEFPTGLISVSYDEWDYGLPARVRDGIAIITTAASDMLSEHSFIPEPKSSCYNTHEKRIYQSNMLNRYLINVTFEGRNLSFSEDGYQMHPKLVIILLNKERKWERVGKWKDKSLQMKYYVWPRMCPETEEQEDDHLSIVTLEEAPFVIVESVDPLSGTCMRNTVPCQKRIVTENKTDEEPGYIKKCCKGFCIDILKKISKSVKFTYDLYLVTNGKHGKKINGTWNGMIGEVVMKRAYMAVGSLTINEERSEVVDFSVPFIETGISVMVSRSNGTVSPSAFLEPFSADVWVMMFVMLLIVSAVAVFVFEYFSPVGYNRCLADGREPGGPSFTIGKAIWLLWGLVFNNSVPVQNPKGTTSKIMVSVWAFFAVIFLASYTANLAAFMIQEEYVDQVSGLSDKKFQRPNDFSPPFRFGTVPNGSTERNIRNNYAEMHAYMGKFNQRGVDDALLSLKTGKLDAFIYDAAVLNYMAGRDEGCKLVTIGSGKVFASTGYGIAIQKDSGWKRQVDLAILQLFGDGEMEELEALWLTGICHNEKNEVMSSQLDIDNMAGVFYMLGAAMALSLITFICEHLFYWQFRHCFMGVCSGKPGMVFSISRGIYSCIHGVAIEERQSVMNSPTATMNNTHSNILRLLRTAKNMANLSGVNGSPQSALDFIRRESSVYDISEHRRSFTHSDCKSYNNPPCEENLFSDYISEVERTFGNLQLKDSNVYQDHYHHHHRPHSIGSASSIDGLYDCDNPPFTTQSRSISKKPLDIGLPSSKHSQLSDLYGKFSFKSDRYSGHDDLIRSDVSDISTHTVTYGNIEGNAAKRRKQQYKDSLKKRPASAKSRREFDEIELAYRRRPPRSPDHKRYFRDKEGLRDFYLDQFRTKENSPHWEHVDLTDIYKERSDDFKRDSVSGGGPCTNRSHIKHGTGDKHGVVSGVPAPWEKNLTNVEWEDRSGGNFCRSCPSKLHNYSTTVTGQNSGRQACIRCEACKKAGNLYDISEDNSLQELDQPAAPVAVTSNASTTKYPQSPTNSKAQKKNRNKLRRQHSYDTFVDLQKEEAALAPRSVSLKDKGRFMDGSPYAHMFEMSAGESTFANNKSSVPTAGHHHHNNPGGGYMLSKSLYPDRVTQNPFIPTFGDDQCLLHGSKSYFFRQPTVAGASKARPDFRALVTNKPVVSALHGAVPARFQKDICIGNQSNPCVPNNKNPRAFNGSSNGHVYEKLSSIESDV

For Cc1cc(-n2cc(COc3ncc(Cl)cn3)nn2)c(F)cc1F [Example 653, 5-Chloro-2-[[1-(2,4-difluoro-5-methyl-phenyl)triazol-4-yl]methoxy]pyrimidine], which IC50 is on record?
The IC50 was 1.49 µM.

Cc1nc(OCc2cn(-c3ccc(F)c(C(C)(F)F)c3)nn2)ncc1F [Example 575, 2-[[1-[3-(1,1-Difluoroethyl)-4-fluoro-phenyl]triazol-4-yl]methoxy]-5-fluoro-4-methyl-pyrimidine] was tested. Which IC50 did it give?
The IC50 was 0.006 µM.

How did the IC50 turn out when Fc1ccc(-n2cc(COc3ncc(C4CC4)cn3)nn2)cc1C(F)F [Example 423, 5-Cyclopropyl-2-[[1-[3-(difluoromethyl)-4-fluoro-phenyl]triazol-4-yl]methoxy]pyrimidine] was run?
The IC50 was 0.005 µM.

Which IC50 does the source give for Nc1cnc(OCc2cn(-c3ccc(F)c(OC(F)F)c3)nn2)nc1 [Example 502, 2-[[1-[3-(Difluoromethoxy)-4-fluoro-phenyl]triazol-4-yl]methoxy]pyrimidin-5-amine] here?
The IC50 was 0.136 µM.

FC(F)c1ccnc(OCc2cn(-c3ccc(Cl)c(C(F)F)c3)nn2)n1 [Example 628, 2-[[1-[4-Chloro-3-(difluoromethyl)phenyl]triazol-4-yl]methoxy]-4-(difluoromethyl)pyrimidine] was tested. Which IC50 did it give?
The IC50 was 0.042 µM.

For Fc1ccc(-n2cc(COc3ncc(N4CCOCC4)cn3)nn2)cc1C(F)(F)F [Example 456, 4-(2-((1-(4-Fluoro-3-(trifluoromethyl)phenyl)-1H-1,2,3-triazol-4-yl)methoxy)pyrimidin-5-yl)morpholine], which IC50 is on record?
The IC50 was 0.5 µM.

Which IC50 does the source give for CC(C)(O)c1cnc(OCc2cn(-c3ccc(F)c(C(F)(F)F)c3)nn2)nc1 [Example 435, 2-[2-[[1-[4-Fluoro-3-(trifluoromethyl)phenyl]triazol-4-yl]methoxy]pyrimidin-5-yl]propan-2-ol] here?
The IC50 was 0.098 µM.

How did the IC50 turn out when Cc1cc(F)ccc1-n1cc(COc2ncc(Cl)cn2)nn1 [Example 489, 5-Chloro-2-[[1-(4-fluoro-2-methyl-phenyl)triazol-4-yl]methoxy]pyrimidine] was run?
The IC50 was 4.42 µM.

For COc1ncccc1OCc1cn(-c2ccc(F)c(C(C)(F)F)c2)nn1 [Example 561, 3-[[1-[3-(1,1-Difluoroethyl)-4-fluoro-phenyl]triazol-4-yl]methoxy]-2-methoxy-pyridine], which IC50 is on record?
Its IC50 is 0.476 µM.

Cc1cccc(-n2cc(COc3ncc(Cl)c(C)n3)nn2)n1 [Example 661, 5-Chloro-4-methyl-2-[[1-(6-methyl-2-pyridyl)triazol-4-yl]methoxy]pyrimidine] was tested. Which IC50 did it give?
Its IC50 is greater than 2.99 µM.

CC(C)(O)c1cnc(OCc2cn(-c3ccc(F)c(OC(F)F)c3)nn2)nc1 [Example 500, 2-[2-[[1-[3-(Difluoromethoxy)-4-fluoro-phenyl]triazol-4-yl]methoxy]pyrimidin-5-yl]propan-2-ol] was tested. Which IC50 did it give?
The IC50 was 0.068 µM.

How did the IC50 turn out when CC(F)(F)c1cc(-n2cc(COc3nccc(CO)n3)nn2)ccc1F [Example 568, [2-[[1-[3-(1,1-Difluoroethyl)-4-fluoro-phenyl]triazol-4-yl]methoxy]pyrimidin-4-yl]methanol] was run?
The IC50 was 0.025 µM.

How did the IC50 turn out when COCc1ccnc(OCc2cn(-c3ccc(F)c(C(C)(F)F)c3)nn2)n1 [Example 570, 2-[[1-[3-(1,1-Difluoroethyl)-4-fluoro-phenyl]triazol-4-yl]methoxy]-4-(methoxymethyl)pyrimidine] was run?
Its IC50 is 0.011 µM.

Which IC50 does the source give for Fc1ccc(-n2cc(COc3nccc(N4CC(F)C4)n3)nn2)cc1OC(F)F [Example 510, 2-[[1-[3-(Difluoromethoxy)-4-fluoro-phenyl]triazol-4-yl]methoxy]-4-(3-fluoroazetidin-1-yl)pyrimidine] here?
Its IC50 is 0.025 µM.

Fc1cnc(OCc2cn(-c3cccc(Cl)c3F)nn2)nc1 [Example 614, 2-[[1-(3-Chloro-2-fluoro-phenyl)triazol-4-yl]methoxy]-5-fluoro-pyrimidine] was tested. Which IC50 did it give?
Its IC50 is 4.03 µM.

For Fc1cnc(OCc2cn(-c3ccc(F)c(F)c3)nn2)nc1 [Example 598, 2-[[1-(3,4-Difluorophenyl)triazol-4-yl]methoxy]-5-fluoro-pyrimidine], which IC50 is on record?
Its IC50 is 1.45 µM.

Same assay, conditions: standard assay; human GluN1/GluN2B, calcium flux (FLIPR), glutamate ~EC80

Which IC50 does the source give for Fc1ccc(-n2cc(CNc3ccccn3)nn2)cc1C(F)F [Example 215, N-((1-(3-(Difluoromethyl)-4-fluorophenyl)-1H-1,2,3-triazol-4-yl)methyl)pyridin-2-amine] here?
Its IC50 is 0.986 µM.

Which IC50 does the source give for Cc1cnc(NCc2cn(-c3ccc(F)c(C(C)(F)F)c3)nn2)nc1C [Example 210, N-[[1-[3-(1,1-Difluoroethyl)-4-fluoro-phenyl]triazol-4-yl]methyl]-4,5-dimethyl-pyrimidin-2-amine] here?
The IC50 was 0.05 µM.

For Cc1cnc(OCc2cn(-c3ccc(F)c(Br)c3)nn2)nc1C [Example 85, 2-[[1-(3-Bromo-4-fluoro-phenyl)triazol-4-yl]methoxy]-4,5-dimethyl-pyrimidine], which IC50 is on record?
Its IC50 is 0.003 µM.

With CC(F)(F)c1cc(-n2cc(CNc3ncc(C4CC4)cn3)nn2)ccc1F [Example 209, 5-Cyclopropyl-N-[[1-[3-(1,1-difluoroethyl)-4-fluoro-phenyl]triazol-4-yl]methyl]pyrimidin-2-amine] as the compound, how does the IC50 read?
The IC50 was 0.104 µM.

With Cc1cc(-n2cc(CNc3ncc(Cl)c(C)n3)nn2)ccc1F [Example 199, 5-Chloro-N-[[1-(4-fluoro-3-methyl-phenyl)triazol-4-yl]methyl]-4-methyl-pyrimidin-2-amine] as the compound, how does the IC50 read?
Its IC50 is 0.051 µM.

For Cc1cnc(OCc2cn(-c3cccc(C(F)F)c3)nn2)nc1N [Example 161, 2-[[1-[3-(Difluoromethyl)phenyl]triazol-4-yl]methoxy]-5-methyl-pyrimidin-4-amine], which IC50 is on record?
Its IC50 is 0.055 µM.

For FC(F)Oc1cc(-n2cc(CNc3ncccn3)nn2)ccc1Cl [Example 98, N-[[1-[4-Chloro-3-(difluoromethoxy)phenyl]triazol-4-yl]methyl]pyrimidin-2-amine], which IC50 is on record?
Its IC50 is 0.331 µM.

Which IC50 does the source give for FC(F)c1cccc(-n2cc(CNc3ncccn3)nn2)c1 [Example 6] here?
Its IC50 is 10.6 µM.

How did the IC50 turn out when Clc1ccc(-n2cc(COc3ncc(Cl)cn3)nn2)cc1 [Example 225, 5-Chloro-2-[[1-(4-chlorophenyl)triazol-4-yl]methoxy]pyrimidine] was run?
The IC50 was 0.07 µM.

With CCc1cc(-n2cc(COc3ncc(C(C)(C)O)cn3)nn2)ccc1F [Example 182, 2-[2-[[1-(3-Ethyl-4-fluoro-phenyl)triazol-4-yl]methoxy]pyrimidin-5-yl]propan-2-ol] as the compound, how does the IC50 read?
The IC50 was 0.027 µM.

Which IC50 does the source give for CC(=O)c1cnc(OCc2cn(-c3cccc(OC(F)(F)F)c3)nn2)nc1 [Example 344, 1-[2-[[1-[3-(Trifluoromethoxy)phenyl]triazol-4-yl]methoxy]pyrimidin-5-yl]ethanone] here?
The IC50 was 0.062 µM.

How did the IC50 turn out when COc1ccnc(OCc2cn(-c3ccc(Cl)c(OC(F)F)c3)nn2)n1 [Example 29, 2-[[1-[4-Chloro-3-(difluoromethoxy)phenyl]triazol-4-yl]methoxy]-4-methoxy-pyrimidine] was run?
The IC50 was 0.011 µM.

For COc1ncccc1OCc1cn(-c2ccc(Cl)c(OC(F)F)c2)nn1 [Example 103, 3-[[1-[4-Chloro-3-(difluoromethoxy)phenyl]triazol-4-yl]methoxy]-2-methoxy-pyridine], which IC50 is on record?
Its IC50 is 0.064 µM.

CC(C)c1cnc(OCc2cn(-c3ccc(Cl)c(C(F)F)c3)nn2)nc1 [Example 48, 2-[[1-[4-Chloro-3-(difluoromethyl)phenyl]triazol-4-yl]methoxy]-5-isopropyl-pyrimidine] was tested. Which IC50 did it give?
The IC50 was 0.008 µM.

For Fc1cnc(NCc2cn(-c3cccc(C(F)F)c3)nn2)nc1 [Example 197, N-[[1-[3-(Difluoromethyl)phenyl]triazol-4-yl]methyl]-5-fluoro-pyrimidin-2-amine], which IC50 is on record?
Its IC50 is 0.652 µM.

For FC(F)c1cc(-n2cc(COc3ncc(Cl)cn3)nn2)ccc1Cl [Example 47, 5-Chloro-2-[[1-[4-chloro-3-(difluoromethyl)phenyl]triazol-4-yl]methoxy]pyrimidine], which IC50 is on record?
The IC50 was 0.003 µM.

For COc1cnc(OCc2nnn(-c3cccc(C(F)F)c3)c2C)nc1 [Example 172, 2-[[1-[3-(Difluoromethyl)phenyl]-5-methyl-triazol-4-yl]methoxy]-5-methoxy-pyrimidine], which IC50 is on record?
The IC50 was 0.468 µM.

How did the IC50 turn out when CC(C)c1cnc(NCc2cn(-c3ccc(F)c(C(C)(F)F)c3)nn2)nc1 [Example 208, N-[[1-[3-(1,1-Difluoroethyl)-4-fluoro-phenyl]triazol-4-yl]methyl]-5-isopropyl-pyrimidin-2-amine] was run?
The IC50 was 0.581 µM.

For Fc1cnc(OCc2cn(-c3ccc(Cl)c(OC(F)F)c3)nn2)cn1 [Example 189, 2-[[1-[4-Chloro-3-(difluoromethoxy)phenyl]triazol-4-yl]methoxy]-5-fluoro-pyrazine], which IC50 is on record?
Its IC50 is 1.46 µM.

Which IC50 does the source give for Cc1cc(C)cc(-n2cc(COc3ncccn3)nn2)c1 [Example 360, 2-[[1-(3,5-Dimethylphenyl)triazol-4-yl]methoxy]pyrimidine] here?
Its IC50 is 0.791 µM.

With Fc1ccc(-n2cc(COc3nccc(N4CCC(F)(F)C4)n3)nn2)cc1OC(F)F [Example 166, 2-[[1-[3-(Difluoromethoxy)-4-fluoro-phenyl]triazol-4-yl]methoxy]-4-(3,3-difluoropyrrolidin-1-yl)pyrimidine] as the compound, how does the IC50 read?
The IC50 was 0.144 µM.

For FC(F)c1cccc(-n2cc(COc3nccc(N4CCCCC4)n3)nn2)c1 [Example 285, 2-[[1-[3-(Difluoromethyl)phenyl]triazol-4-yl]methoxy]-4-(1-piperidyl)pyrimidine], which IC50 is on record?
Its IC50 is 0.299 µM.

With FC(F)Oc1cnc(OCc2cn(-c3ccc(Cl)cc3)nn2)nc1 [Example 227, 2-[[1-(4-Chlorophenyl)triazol-4-yl]methoxy]-5-(difluoromethoxy)pyrimidine] as the compound, how does the IC50 read?
The IC50 was 0.151 µM.

With FC(F)Oc1cc(-n2cc(COc3ncc(N4CCC4)cn3)nn2)ccc1Cl [Example 391, 5-(Azetidin-1-yl)-2-((1-(4-chloro-3-(difluoromethoxy)phenyl)-1H-1,2,3-triazol-4-yl)methoxy)pyrimidine] as the compound, how does the IC50 read?
Its IC50 is 0.022 µM.

How did the IC50 turn out when COCc1ccnc(OCc2cn(-c3cccc(C)c3)nn2)n1 [Example 250, 4-(Methoxymethyl)-2-[[1-(m-tolyl)triazol-4-yl]methoxy]pyrimidine] was run?
The IC50 was 0.249 µM.

For CCc1cnc(OCc2cn(-c3cccc(C(C)C)c3)nn2)nc1 [Example 267, 5-Ethyl-2-[[1-(3-isopropylphenyl)triazol-4-yl]methoxy]pyrimidine], which IC50 is on record?
Its IC50 is 0.012 µM.
